Experimental findings from a compilation of properties of binary mixtures (doi:10.1016/j.fluid.2022.113559) are described below.

This series can be described thus: xn = mol fraction of the nth substance listed. As to conditions: 101 kPa, x1 = 0.3333.

As usually defined, the viscosity is the internal friction of a fluid under shear. A lower viscosity goes with easy flow. For `CC[n+]1ccn(C)c1.N#C[S-]` + CS(C)=O, the viscosity by setting is: (283.15 K) 3.95 mPa·s; (288.15 K) 3.58 mPa·s; (298.15 K) 2.92 mPa·s; (303.15 K) 2.63 mPa·s; (313.15 K) 2.12 mPa·s; (318.15 K) 1.91 mPa·s. Further, the viscosity runs as follows: (323.15 K) 1.73 mPa·s; (333.15 K) 1.44 mPa·s; (338.15 K) 1.34 mPa·s; (343.15 K) 1.26 mPa·s; (348.15 K) 1.21 mPa·s; (353.15 K) 1.19 mPa·s.

Regarding `CCOS(=O)(=O)[O-].CC[n+]1ccn(C)c1` + CS(C)=O, the viscosity is, setting by setting: (283.15 K) 4.35 mPa·s; (298.15 K) 3.16 mPa·s; (303.15 K) 2.83 mPa·s; (308.15 K) 2.53 mPa·s; (318.15 K) 2.02 mPa·s; (323.15 K) 1.82 mPa·s. Besides, the viscosity is 1.64 mPa·s (328.15 K); 1.5 mPa·s (333.15 K); 1.39 mPa·s (338.15 K); 1.32 mPa·s (343.15 K); 1.24 mPa·s (353.15 K).
